For this test, the system named is Botrytis cinerea (B05.10). Nature of the test: Resazurin antifungal assay of 180 alpha-factor peptide variants towards Botrytis (Example 2). The format is cell-based. Further details: key to active against Botrytis at 15 μM / active against Botrytis at 10 μM: Peptides that showed greater than 90% inhibition were considered active against Botrytis. The settings on record: for Inhibition at 10 μM: peptide 10 μM; for Inhibition at 20 μM: peptide 20 μM; for Inhibition at 50 μM: peptide 50 μM; for Inhibition at 100 μM: peptide 100 μM. The protocol: The antifungal activity of 180 alpha-factor peptide variants towards Botrytis was tested. Experimental design:
Peptides corresponding to SEQ ID NO: 1-180 were chemically synthesized using the solid-phase synthesis method and resuspended in water to a stock solution of 1 mM. The stock solution was aliquoted in cryovials and stored at −80° C.
The Botrytis cinerea culture (B05.10) isolate was acquired from the Centraalbureau voor Schimmelcultures, the Netherlands. The Botrytis fungus was propagated on 0.5% V8 agar plates (200 ml V8 Juice, 3 g CaCO3, 15 g agar, 800-ml millipore water) at 20° C., in a 12 h photoperiod for 21 days.
Fungal conidia were harvested by scraping a Botrytis plate flooded with 1 ml water with 0.1% Tween 80 solution. Conidia were then collected in a 50 ml falcon tube by passing the solution through a 40 micron filter. The solution was then centrifuged at 6000 rpm and the pellet was resuspended in 1 ml of 20% glycerol. The conidia concentration of the resulting solution was counted using a hemocytometer. The stock was diluted to […] using 20% glycerol and frozen in 100 μl aliquots in −80° C. until further use.
Peptides were tested for activity against Botrytis, using the resazurin assay. For this, fungal stock conidia was first diluted to 5000 conidia/well. 50 μl of the spore suspension was added to each well of the sterile 96-well clear bottom testing plate and mixed with 50 μl of peptide solutions to a final concentration of 100, 50, 20, 15 and 10 μM. The plate was incubated for 24 h at 20° C. After 24 h, 10 μl of resazurin dye was added to the microtiter plate and incubated again for […]. Fluorescence was measured at 570/620 nm after 4 h of incubation with resazurin.
Growth inhibition was calculated by subtracting the fluorescence values of conidia only wells from sample wells and depicted as % inhibition of fungal growth. Four technical replicates were used for all treatments.
On the technique in general: The colour change of resazurin is a common sign of viable cells or microbes.

Where [1] appears, read: % inhibition of fungal growth, Botrytis conidia, resazurin.

Peptide text beside a SMILES is read from it. Some results are limits rather than exact numbers.

What is called Inhibition is how much of the control response was suppressed.

For the compound `CC[C@H](C)[C@H](NC(=O)[C@H](CCC(N)=O)NC(=O)[C@@H](NC(=O)[C@H](Cc1c[nH]c2ccccc12)NC(=O)[C@H](CCCCN)NC(=O)[C@@H](N)Cc1c[nH]c2ccccc12)C(C)C)C(=O)N[C@@H](CCCCN)C(=O)N[C@@H](CCCCN)C(=O)NCC(=O)N[C@@H](C)C(=O)N1CCC[C@H]1C(=O)N[C@@H](CCSC)C(=O)N[C@@H](Cc1ccc(O)cc1)C(=O)O` [compound 58] (H-WKWVQIKKGAPMY-OH; N-terminus and C-terminus assumed), under setting [1], the “Inhibition at 10 μM” value is reported as less than 90%, the “Inhibition at 20 μM” value was less than 90%, the “Inhibition at 50 μM” value is given as 100% and the “Inhibition at 100 μM” value came out at 100%.

Regarding `CSCC[C@H](NC(=O)[C@@H]1CCCN1C(=O)[C@H](CCC(N)=O)NC(=O)CNC(=O)[C@@H]1CCCN1C(=O)[C@H](CCCCN)NC(=O)[C@H](CC(C)C)NC(=O)[C@H](CCC(=O)O)NC(=O)CNC(=O)[C@H](Cc1c[nH]c2ccccc12)NC(=O)[C@H](Cc1c[nH]cn1)NC(=O)[C@@H]1CCCN1)C(=O)N[C@@H](Cc1ccc(O)cc1)C(=O)O` [compound 143] (H-PHWGELKPGQPMY-OH; N-terminus and C-terminus assumed), under setting [1], the “Inhibition at 50 μM” value is reported as less than 90% and the “Inhibition at 100 μM” value is listed as less than 90%.

With `CSCC[C@H](NC(=O)[C@@H]1CCCN1C(=O)[C@H](CCC(N)=O)NC(=O)CNC(=O)[C@@H]1CCCN1C(=O)[C@H](CCCCN)NC(=O)[C@H](Cc1ccccc1)NC(=O)[C@H](CCCNC(=N)N)NC(=O)[C@H](CC(C)C)NC(=O)[C@@H](NC(=O)[C@H](Cc1c[nH]cn1)NC(=O)[C@@H](N)Cc1c[nH]c2ccccc12)[C@@H](C)O)C(=O)N[C@@H](Cc1ccc(O)cc1)C(=O)O` [compound 92] (H-WHTLRFKPGQPMY-OH; N-terminus and C-terminus assumed), under setting [1], the “Inhibition at 10 μM” value is reported as less than 90%, the “Inhibition at 20 μM” value is less than 90%, the “Inhibition at 50 μM” value is recorded as 98.44% and the “Inhibition at 100 μM” value stood at 98.95%.

`CSCC[C@H](NC(=O)CNC(=O)[C@H](CCC(N)=O)NC(=O)CNC(=O)[C@@H]1CCCN1C(=O)[C@H](CCCCN)NC(=O)[C@H](CC(C)C)NC(=O)[C@H](CO)NC(=O)[C@H](CC(C)C)NC(=O)[C@H](Cc1c[nH]c2ccccc12)NC(=O)[C@H](CO)NC(=O)[C@@H](N)CCCCN)C(=O)N[C@@H](Cc1ccc(O)cc1)C(=O)O` [compound 32] (H-KSWLSLKPGQGMY-OH; N-terminus and C-terminus assumed): under setting [1], the “Inhibition at 50 μM” value is recorded as less than 90% and the “Inhibition at 100 μM” value is listed as less than 90%.

As for `CC[C@H](C)[C@H](NC(=O)[C@H](CCC(N)=O)NC(=O)[C@H](CC(C)C)NC(=O)[C@H](Cc1ccccc1)NC(=O)[C@H](Cc1c[nH]cn1)NC(=O)[C@@H](N)Cc1c[nH]c2ccccc12)C(=O)N[C@@H](CCCCN)C(=O)N1CCC[C@H]1C(=O)NCC(=O)N[C@@H](CCC(N)=O)C(=O)NCC(=O)N[C@@H](CCSC)C(=O)N[C@@H](Cc1ccc(O)cc1)C(=O)O` [compound 90] (H-WHFLQIKPGQGMY-OH; N-terminus and C-terminus assumed), under setting [1], the “Inhibition at 10 μM” value is less than 90%, the “Inhibition at 20 μM” value is given as less than 90%, the “Inhibition at 50 μM” value came to 99.27% and the “Inhibition at 100 μM” value was 100%.

Take `CC[C@H](C)[C@H](NC(=O)[C@H](Cc1c[nH]c2ccccc12)NC(=O)[C@H](Cc1c[nH]cn1)NC(=O)[C@@H](N)CCCCN)C(=O)N[C@@H](CCCCN)C(=O)N[C@@H](CC(C)C)C(=O)N[C@@H](CCSC)C(=O)N1CCC[C@H]1C(=O)NCC(=O)N[C@@H](CCC(N)=O)C(=O)NCC(=O)N[C@@H](CCSC)C(=O)N[C@@H](Cc1ccc(O)cc1)C(=O)O` [compound 8] (H-KHWIKLMPGQGMY-OH; N-terminus and C-terminus assumed): under setting [1], the “Inhibition at 10 μM” value is less than 90%, the “Inhibition at 20 μM” value is given as less than 90%, the “Inhibition at 50 μM” value is 100% and the “Inhibition at 100 μM” value worked out at 100%.

For `CSCC[C@H](NC(=O)[C@@H]1CCCN1C(=O)[C@H](CCC(N)=O)NC(=O)CNC(=O)[C@@H]1CCCN1C(=O)[C@H](CCCCN)NC(=O)[C@H](CC(C)C)NC(=O)[C@H](CC(N)=O)NC(=O)[C@H](CC(C)C)NC(=O)[C@H](Cc1c[nH]c2ccccc12)NC(=O)[C@H](CCC(=O)O)NC(=O)[C@@H](N)CCCCN)C(=O)N[C@@H](Cc1ccc(O)cc1)C(=O)O` [compound 151] (H-KEWLNLKPGQPMY-OH; N-terminus and C-terminus assumed), under setting [1], the “Inhibition at 50 μM” value is given as less than 90% and the “Inhibition at 100 μM” value was less than 90%.

For the compound `CSCC[C@H](NC(=O)[C@@H]1CCCN1C(=O)[C@H](CCC(N)=O)NC(=O)CNC(=O)[C@@H]1CCCN1C(=O)[C@H](CCCCN)NC(=O)[C@H](Cc1ccccc1)NC(=O)[C@H](CCCNC(=N)N)NC(=O)[C@H](CC(C)C)NC(=O)[C@H](Cc1ccccc1)NC(=O)[C@H](Cc1c[nH]cn1)NC(=O)[C@@H](N)CCCCN)C(=O)N[C@@H](Cc1ccc(O)cc1)C(=O)O` [compound 18] (H-KHFLRFKPGQPMY-OH; N-terminus and C-terminus assumed), under setting [1], the “Inhibition at 10 μM” value is less than 90%, the “Inhibition at 20 μM” value is given as 99.67%, the “Inhibition at 50 μM” value was determined as 100% and the “Inhibition at 100 μM” value stood at 100%. The “Inhibition at 15 μM” value (% inhibition of fungal growth, Botrytis conidia, peptide 15 μM, resazurin) stood at 94.03%. Under “peptide 15 μM”, the “active against Botrytis at 15 μM” value is given as “active”.

Regarding `CSCC[C@H](NC(=O)[C@@H]1CCCN1C(=O)[C@H](CCC(N)=O)NC(=O)CNC(=O)[C@@H](NC(=O)[C@H](CC(N)=O)NC(=O)[C@H](CC(C)C)NC(=O)[C@H](CO)NC(=O)[C@H](CC(C)C)NC(=O)[C@H](Cc1c[nH]c2ccccc12)NC(=O)[C@H](Cc1c[nH]cn1)NC(=O)[C@@H](N)Cc1c[nH]c2ccccc12)[C@@H](C)O)C(=O)N[C@@H](Cc1ccc(O)cc1)C(=O)O` [compound 46] (H-WHWLSLNTGQPMY-OH; N-terminus and C-terminus assumed), under setting [1], the “Inhibition at 50 μM” value is listed as less than 90% and the “Inhibition at 100 μM” value came to 97.03%.

On to `CSCC[C@H](NC(=O)[C@@H]1CCCN1C(=O)[C@H](CCC(N)=O)NC(=O)CNC(=O)[C@H](CCCNC(=N)N)NC(=O)[C@H](CCCCN)NC(=O)[C@H](CC(C)C)NC(=O)[C@H](CCC(N)=O)NC(=O)[C@H](CC(C)C)NC(=O)[C@@H](NC(=O)[C@H](Cc1c[nH]cn1)NC(=O)[C@@H](N)CCCCN)[C@@H](C)O)C(=O)N[C@@H](Cc1ccc(O)cc1)C(=O)O` [compound 93] (H-KHTLQLKRGQPMY-OH; N-terminus and C-terminus assumed), for which, under setting [1], the “Inhibition at 10 μM” value is reported as less than 90%, the “Inhibition at 20 μM” value was less than 90%, the “Inhibition at 50 μM” value came out at 97.77% and the “Inhibition at 100 μM” value came to 100%.

On to `CSCC[C@H](NC(=O)[C@@H]1CCCN1C(=O)[C@H](CCC(N)=O)NC(=O)CNC(=O)[C@@H]1CCCN1C(=O)[C@H](CCCCN)NC(=O)[C@H](CC(C)C)NC(=O)[C@@H](NC(=O)[C@H](CC(C)C)NC(=O)[C@H](Cc1ccc(O)cc1)NC(=O)[C@H](Cc1c[nH]cn1)NC(=O)[C@@H](N)CCCCN)[C@@H](C)O)C(=O)N[C@@H](Cc1ccc(O)cc1)C(=O)O` [compound 102] (H-KHYLTLKPGQPMY-OH; N-terminus and C-terminus assumed), for which, under setting [1], the “Inhibition at 10 μM” value was less than 90%, the “Inhibition at 20 μM” value is given as less than 90%, the “Inhibition at 50 μM” value is recorded as less than 90% and the “Inhibition at 100 μM” value stood at 98.51%.

`CSCC[C@H](NC(=O)[C@@H]1CCCN1C(=O)[C@H](CCC(N)=O)NC(=O)CNC(=O)[C@@H]1CCCN1C(=O)[C@H](CC(=O)O)NC(=O)[C@H](Cc1ccccc1)NC(=O)[C@H](CCC(=O)O)NC(=O)[C@@H](NC(=O)[C@H](Cc1c[nH]c2ccccc12)NC(=O)[C@H](Cc1c[nH]cn1)NC(=O)[C@@H]1CCCN1)C(C)C)C(=O)N[C@@H](Cc1ccc(O)cc1)C(=O)O` [compound 128] (H-PHWVEFDPGQPMY-OH; N-terminus and C-terminus assumed): under setting [1], the “Inhibition at 50 μM” value was less than 90% and the “Inhibition at 100 μM” value is listed as less than 90%.

In the case of `CC[C@H](C)[C@H](NC(=O)[C@H](CCC(N)=O)NC(=O)CNC(=O)[C@H](CCSC)NC(=O)[C@H](CO)NC(=O)[C@@H](N)Cc1c[nH]c2ccccc12)C(=O)N[C@@H](CCCCN)C(=O)N1CCC[C@H]1C(=O)NCC(=O)N[C@@H](CO)C(=O)N1CCC[C@H]1C(=O)N[C@@H](CCSC)C(=O)N[C@@H](Cc1ccc(O)cc1)C(=O)O` [compound 120] (H-WSMGQIKPGSPMY-OH; N-terminus and C-terminus assumed), under setting [1], the “Inhibition at 50 μM” value was less than 90% and the “Inhibition at 100 μM” value was less than 90%.

Values taken from patent US20250382332A1, “NOVEL ALPHA-FACTOR BASED PEPTIDES WITH ANTIFUNGAL ACTIVITY” (INVAIO SCIENCES, INC., priority 2024, published 2025).
